The source of these data is US20210085742A1, “FRUIT EXTRACT AND USES THEREOF” (THE UNIVERSITY OF NOTTINGHAM, priority 2017, published 2021).

Structures are written as SMILES.

For one series, the system named is Lung Carcinoma (A549). The experiment in a line: anti-proliferative activity, wst-1, lung cancer cell line. The class given is cell-based, human. How it is done: Human tissue culture experiments—lung (A549), ovarian (OVCAR-3, SKOV), breast (MDA-MB-231) and prostate (PC-3) cancer cell lines were chosen to provide a broad profile of different cancer cell types and their response to treatment with the natural compound. Cell were seeded as a mono-layer in 96 well flat bottom Nunc tissue culture plates at a density of 10,000 cells per well and supplemented with RPMI 1640 media (Sigma Aldrich) containing 10% foetal calf serum, penicillin and streptomycin. Cells were then treated for 72 hours with a range of concentrations of MGDG either DMSO soluble, media soluble sample or the pure synthetic molecule. Four biological repetitions were tested for each dose. Activity of each treatment was then assessed using wst-1 reagent (Roche) as per the manufacturer's instructions. Data was visualised using a victor plate reader (Perkin Elmer) at a wavelength of 450 nm.

In a further series the test system is IL-6. Put plainly: IL-6 inflammatory activity in IL-1α+TNFα treated cells. The class given is cell-based. The conditions noted are these: dose of about 10 μg.
In series [1] the test system is Neuroligin 1 (5'UTR) luciferase reporter. The experiment in a line: Neuroligin 1 5'UTR firefly luciferase reporter. The class given is cell-based. An excerpt: (§1) Transient transfection conditions and luciferase reporter constructs—Firefly luciferase reporter plasmids containing the 5′ untranslated regions (UTRs) of the genes Neuroligin 1 and Neuroligin 2 were a kind gift from Professor Nahum Sonenberg (McGill) and used as described by Gkogkas et al, 2013. Nature, 17; 371-377.
(§2) Cells were transfected using FuGene 6 (Roche) following the manufacturer's instructions. The activities of firefly and Renilla luciferase in lysates prepared from transfected cells were measured using a commercially available Luciferase reporter assay system (Promega) and light emission was measured over a 10 sec interval using either a TECAN luminometer. For each experiment described, data was obtained from a minimum of at least 3 biological repetitions per treatment.

The subject of series [2] is Neuroligin 2 5'UTR luciferase reporter. The experiment in a line: Neuroligin 2 5'UTR firefly luciferase reporter. The format is cell-based.
Excerpt: as §1, §2
In general terms: In a reporter assay the amount or activity of a reporter protein is the signal.

A further series concerns mice. The experiment in a line: mouse in vivo toxicity study. The conditions noted are these: oral, 2000 mg/kg everyday for 14 days vs water control.
Another series deals with cancer cells. Put plainly: dose calculation for inhibition of growth of cancer cells. Set-up: species or system human.

Consider `CC/C=C\C/C=C\C/C=C\CCCCCCCC(=O)OC[C@H](COC1OC(CO)C(O)C(O)C1O)OC(=O)CCCCCCC/C=C\C/C=C\C/C=C\CC` (some centres unmarked) [MGDG, monogalactosyl diacylglycerol], for which, in the series with Lung Carcinoma (A549), the “anti-cancer / anti-proliferative activity” value was “anti-proliferative effects”. In the series with IL-6, the “reduction of IL-6 inflammatory activity” value is on record as roughly 80%. The “effect on Neuroligin 1 reporter” value in series [1] is recorded as “can be dampened”. The “reduction in the levels of Neuroligin 1” value in series [1] (10 μM dose, luciferase reporter system) was “about 35%”. Further, the “effect on Neuroligin 2 reporter activity” value in series [2] was “unaffected”. The “survival or weight / toxicity” value with mice is recorded as “no difference in survival or weight”. Besides, the “inhibition in the growth of cancer cells” value in the series on cancer cells (daily dose of approximately 11 mgs, human) is 50%; in the series with cancer cells (dose of approximately 5.5 mgs in a 60kg human) it was 30%.
